In patent US20190350964A1, “ANTI-CANCER COMPOUNDS AND USES THEREOF” (NATIONAL UNIVERSITY OF SINGAPORE, priority 2016, published 2019):

Assays:
[1] = biological target: T1, Phosphatidylinositol 5-phosphate 4-kinase type-2 gamma (Homo sapiens, UniProt Q8TBX8); assay: MS-CETSA in normal BJ cell lysates; format: binding; settings: lysate, 100 μM compound
T1 construct: After collecting data covering >8,000 proteins in lysates of normal BJ cells; endogenous in cells; host or cells: normal BJ cells, lysate
Procedure: (§2) Target identification was performed by cellular thermal shift assay (CETSA) coupled with quantitative mass spectrometry. In brief, normal BJ cells were lysed by combination of freeze/thaw and mechanical shearing with needle in buffer [50 mM HEPES (pH 7.5), 5 mM β-glycerophosphate, 0.1 mM Sodium Vanadate, 10 mM MgCl2, 1 mM TCEP and 1× Protease inhibitor Cocktail]. The cell debris was removed by centrifugation at 20,000 g for 20 min at 4° C. […] Each lysate was divided into 10 aliquots for heat treatment at the respective temperatures for 3 min in a 96-well thermocycler, followed by 3 min at 4° C. The lysate was centrifuged at 20,000 g for 20 min at 4° C. and the supernatant was transferred into microtubes for MS sample preparation.
(§3) After lysis, at least 100 μg of the protein (measured with a BCA assay) was subjected to reduction, denaturation and alkylation. Samples were subsequently incubated with sequencing grade LysC (Wako) and trypsin (Promega) for digestion overnight at 37° C. The digested samples were dried using a centrifugal vacuum evaporator, solubilized in 100 mM TEAB. […]
(§4) Proteins for which a low temperature plateau was not present were deleted using a cut off >0.85 for the average reading of the first three temperature points (in our experience proteins melting already at −37° C. are more prone to give false positives in a shift analysis).

[2] = tested on: Ras-driven glioma initiating cells (GICs); assay: Brain slice explants (orthotopically implanted ex vivo model); set-up: species or system mouse; settings: 20 μM, 4 days
Procedure: Fifty thousand GICs were orthotopically implanted into the forebrain of wild-type mice, and at 7 days post-implantation, brain slice explants were established as previously described (Sampetrean, O. et al., Neoplasia 13: 784-791 (2011)). […] Images were acquired on an FV10i Olympus confocal microscope (Olympus) and tumor area was quantified by Nikon NIS-element software. Experiments were performed in triplicate. At the end of the experiment (Day 4), slices were fixed overnight in 4% paraformaldehyde, embedded in paraffin and then sectioned at a thickness of 4 μm. Deparaffinized sections were stained with rabbit polyclonal antibody against cleaved caspase 3 (Cell Signaling). Immune complexes were detected using Histofine (Nichirei Biosciences) and ImmPACTDAB (Vector Laboratories). All animal experiments were performed in accordance with the animal care guidelines of Keio University.

MCF7 = assay: MTT cytotoxicity test (GI50); format: cell-based; settings: Homo sapiens; MCF7, cancer, breast; MTT 72 h
AGS = assay: MTT cytotoxicity test (GI50); format: cell-based; settings: Homo sapiens, cancer, gastric, MTT 72 h
[3] = biological target: T2, 3-hydroxybutyrate dehydrogenase type 2 (Homo sapiens, UniProt Q9BUT1); assay: MS-CETSA in normal BJ cell lysates; format: binding; settings: lysate, 100 μM compound
T2 construct: After collecting data covering >8,000 proteins in lysates of normal BJ cells; endogenous in cells; host or cells: normal BJ cells, lysate
Procedure: as §2, §3, §4

SNU1750 = assay: MTT cytotoxicity test (GI50); format: cell-based; settings: Homo sapiens; SNU1750, cancer, gastric; MTT 72 h
IM95 = assay: MTT cytotoxicity test (GI50); format: cell-based; settings: Homo sapiens; IM95, cancer, gastric; MTT 72 h
SNU449 = assay: MTT cytotoxicity test (GI50); format: cell-based; settings: Homo sapiens, SNU-449; SNU449, cancer, liver; MTT 72 h
Adenosine kinase = biological target: T3, Adenosine kinase (Homo sapiens, UniProt P55263); assay: MS-CETSA in normal BJ cell lysates; format: binding; settings: lysate, 100 μM compound
T3 construct: After collecting data covering >8,000 proteins in lysates of normal BJ cells; endogenous in cells; host or cells: normal BJ cells, lysate
Procedure: as §2, §3, §4

[4] = tested on: normal and transformed BJ cells; assay: a131 SAR analysis: pH3(Ser10) immunoblot, BrdU incorporation, subG1 FACS; format: cell-based, human; set-up: key: Group 1: possess the dual-inhibitory properties of both causing the arrest of normal BJ cells at the G1/S phase and also causing mitotic arrest/catastrophe in transformed BJ cells; Group 2: only cause the arrest of normal BJ cells at the G1/S phase; Group 3: cause mitotic arrest/catastrophe in transformed BJ cells, but do not arrest normal BJ cells at the G1/S phase; Group 4: are inactive or weakly active; settings: 5 μM, 48 h
Procedure: (§1) Cell death was assessed via Annexin V and/or PI (propidium iodide) staining according to the manufacturer's instructions (eBioscience). Cell growth arrest was assessed by direct measurement of DNA synthesis through incorporation of the nucleoside analog bromodeoxyuridine (BrdU). Briefly, BrdU (30 μM, Sigma-Aldrich) was added for 2 h before harvesting cells. Cells were subsequently stained with Pacific Blue-conjugated BrdU antibody (Invitrogen) for 1 h followed by PI staining. Stained cells were analyzed by MACSQuant (MACS). Three independent experiments were performed in triplicate. The percentage of Annexin V/PI- or BrdU-positive cells was quantified using Flow Jo software (Becton Dickinson). Where indicated, the combined activity of caspase-3/7 was determined using the caspase-Glo 3/7 Assay Kit (Promega) and normalized to the number of viable cells as determined by MTT assay.
Total cell lysates were prepared with 1% triton lysis buffer [25 mM Tris HCl (pH 8.0), 150 mM NaCl, 1% triton-X100, 1 mM dithiothreitol (DTT), protease inhibitor mix (Complete Mini, Roche) and phosphatase inhibitor (PhosphoStop, Roche)] and subjected to SDS-PAGE. The following antibodies were used for immunoblotting: anti-β-actin (Sigma-Aldrich), anti-cleaved PARP (Abcam, #ab32064), anti-PI5P4Kα (#5527), anti-PI5P4Kβ (#9694), anti-cleaved caspase-3 (#9664), anti-pHistone H3(Ser10) (#3377), anti-pAkt(S473) (#9271), anti-pAkt(T308) (#13038), anti-total Akt (#9272), anti-p70S6K(T389) (#9234), anti-total p70S6K (#9202), anti-pErk (#4370), anti-γ-Histone H2AX (#9718) (Cell signaling) and anti-PIK3IP1 (Proteintech, #16826-1-AP). The secondary antibodies used were sheep anti-mouse IgG HRP and donkey anti-rabbit IgG HRP (Amersham; 1:2000 dilution). Immunoreactive proteins were visualized using ECL reagent (Amersham). Where indicated, intensities of protein bands were quantified by densitometry (Odyssey V3.0), normalized to their loading controls and then calculated as fold expression change relative to DMSO control.

ARPE-19 = assay: MTT cytotoxicity test (GI50); format: cell-based; settings: Homo sapiens; ARPE-19, normal, retina; MTT 72 h
MDA-MB-231 = assay: MTT cytotoxicity test (GI50); format: cell-based; settings: Homo sapiens; MDA-MB-231, cancer, breast; MTT 72 h
Hep3 = assay: MTT cytotoxicity test (GI50); format: cell-based; settings: Homo sapiens; Hep3, cancer, liver; MTT 72 h
transformed BJ cells = assay: FACS analysis of the cell cycle (BrdU and PI double staining); format: cell-based, human; settings: 2.5 μM, 48 h
Procedure: as §1

MKN45 = assay: MTT cytotoxicity test (GI50); format: cell-based; settings: Homo sapiens, MKN-45; MKN45, cancer, gastric; MTT 72 h
[5] = biological target: T4, Isoform 2 of Ferrochelatase, mitochondrial (Homo sapiens, UniProt P22830); assay: MS-CETSA in normal BJ cell lysates; format: binding; settings: Uniprot P22830-2, lysate, 100 μM compound
T4 construct: After collecting data covering >8,000 proteins in lysates of normal BJ cells; endogenous in cells; host or cells: normal BJ cells (hTert-immortalised human foreskin fibroblasts), lysate
Procedure: as §2, §3, §4

U2OS = assay: MTT cytotoxicity test (GI50); format: cell-based; settings: Homo sapiens, cancer, others, bone, MTT 72 h
RNA-binding protein 4 = biological target: T5, RNA-binding protein 4 (Homo sapiens, UniProt Q9BWF3); assay: MS-CETSA in normal BJ cell lysates; settings: lysate, 100 μM compound
T5 construct: After collecting data covering >8,000 proteins in lysates of normal BJ cells; endogenous in cells; host or cells: normal BJ cells, lysate
T5 sequence (Q9BWF3 whole entry): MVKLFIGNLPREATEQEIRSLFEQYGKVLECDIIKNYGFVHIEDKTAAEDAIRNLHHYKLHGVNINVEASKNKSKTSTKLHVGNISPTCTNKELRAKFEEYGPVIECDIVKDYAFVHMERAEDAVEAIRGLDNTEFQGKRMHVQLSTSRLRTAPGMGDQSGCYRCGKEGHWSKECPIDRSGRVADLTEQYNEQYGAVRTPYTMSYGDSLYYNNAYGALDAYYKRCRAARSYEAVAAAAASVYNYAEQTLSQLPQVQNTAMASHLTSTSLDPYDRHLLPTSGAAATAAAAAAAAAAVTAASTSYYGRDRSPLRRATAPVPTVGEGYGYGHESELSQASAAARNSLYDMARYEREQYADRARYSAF
Procedure: as §2, §3, §4

T4 sequence (P22830 55-429 isoform P22830-2 limits assumed): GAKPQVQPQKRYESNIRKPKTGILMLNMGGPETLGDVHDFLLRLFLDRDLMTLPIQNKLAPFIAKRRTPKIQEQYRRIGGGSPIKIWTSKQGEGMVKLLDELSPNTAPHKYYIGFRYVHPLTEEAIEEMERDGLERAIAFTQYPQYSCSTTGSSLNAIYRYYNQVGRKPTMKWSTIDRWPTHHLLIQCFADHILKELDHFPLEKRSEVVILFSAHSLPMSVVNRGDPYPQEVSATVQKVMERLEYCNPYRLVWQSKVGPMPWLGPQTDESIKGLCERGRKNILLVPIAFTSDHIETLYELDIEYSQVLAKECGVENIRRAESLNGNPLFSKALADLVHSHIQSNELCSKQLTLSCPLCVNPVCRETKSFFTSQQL
T2 sequence (Q9BUT1 whole entry): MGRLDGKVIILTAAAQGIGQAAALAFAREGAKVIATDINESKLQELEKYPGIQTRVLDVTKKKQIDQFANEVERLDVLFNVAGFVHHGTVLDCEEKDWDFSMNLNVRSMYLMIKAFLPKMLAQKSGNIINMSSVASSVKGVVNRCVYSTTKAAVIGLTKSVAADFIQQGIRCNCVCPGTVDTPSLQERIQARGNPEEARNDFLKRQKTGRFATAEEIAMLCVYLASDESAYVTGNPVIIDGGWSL
T1 sequence (Q8TBX8 whole entry): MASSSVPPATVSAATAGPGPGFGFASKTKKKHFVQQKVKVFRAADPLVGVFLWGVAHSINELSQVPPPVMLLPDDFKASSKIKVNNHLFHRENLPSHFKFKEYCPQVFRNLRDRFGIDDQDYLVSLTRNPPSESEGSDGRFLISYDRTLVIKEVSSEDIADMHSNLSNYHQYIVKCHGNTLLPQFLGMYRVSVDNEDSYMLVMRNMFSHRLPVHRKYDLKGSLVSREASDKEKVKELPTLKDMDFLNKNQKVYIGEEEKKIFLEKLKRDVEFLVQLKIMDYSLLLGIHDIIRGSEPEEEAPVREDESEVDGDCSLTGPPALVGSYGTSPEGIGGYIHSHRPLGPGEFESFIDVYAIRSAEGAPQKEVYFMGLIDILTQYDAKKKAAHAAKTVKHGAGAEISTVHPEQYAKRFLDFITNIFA
T3 sequence (P55263 whole entry): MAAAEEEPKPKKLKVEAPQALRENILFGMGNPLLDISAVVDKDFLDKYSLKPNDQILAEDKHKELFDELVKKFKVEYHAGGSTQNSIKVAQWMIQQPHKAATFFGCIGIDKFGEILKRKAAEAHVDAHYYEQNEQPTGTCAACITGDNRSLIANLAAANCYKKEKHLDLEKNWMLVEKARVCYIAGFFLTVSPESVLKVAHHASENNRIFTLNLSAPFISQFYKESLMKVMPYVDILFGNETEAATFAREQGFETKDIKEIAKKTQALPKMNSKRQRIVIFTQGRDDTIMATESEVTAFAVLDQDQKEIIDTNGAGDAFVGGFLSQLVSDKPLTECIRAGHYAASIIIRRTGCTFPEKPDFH

N#C/C(=C\c1cccc2cnccc12)c1c[nH]c2ccccc12 [a131, (Z)-2-(1H-indol-3-yl)-3-(5-isoquinolyl)prop-2-enenitrile]
ED score [1]: 0.5989 | ΔTm at 100 µM ([1]; read-out: mean Delta Tm): 2.89 °C | apoptosis (cleaved caspase-3) in tumor versus surrounding normal tissue [2]: induced apoptosis only in tumors, but not surrounding normal tissues | tumor growth of GICs in brain explants (Day 4/Day 0) [2]: significantly suppressed growth | GI50 (MCF7): 1.2 µM | GI50 (AGS): 1.1 µM | ED score [3]: 0.5139 | ΔTm at 100 µM ([3]; read-out: mean Delta Tm): 1.83 °C | GI50 (SNU1750): 0.7 µM | GI50 (IM95): 1 µM | GI50 (SNU449): 2.3 µM | ED score (Adenosine kinase): 0.4158 | ΔTm at 100 µM (Adenosine kinase; read-out: mean Delta Tm): 1.74 °C | Group (a131 SAR analysis) [4]: Group 1 | GI50 (ARPE-19): > 10 µM | GI50 (MDA-MB-231): 1.1 µM | GI50 (Hep3): 3.7 µM | aneuploidy (>4N) (transformed BJ cells): significantly induced aneuploidy (>4N) only in transformed BJ cells | cell death (<2N, subG1) (transformed BJ cells; transformed versus normal BJ cells): dramatically induced cell death (<2N) through apoptosis | GI50 (MKN45): 1 µM | ED score [5]: 0.8366 | ΔTm at 100 µM ([5]; read-out: mean Delta Tm): 3.81 °C | GI50 (U2OS): 1.5 µM | ED score (RNA-binding protein 4): 0.3323 | ΔTm at 100 µM (RNA-binding protein 4; read-out: mean Delta Tm): 1.88 °C
